Activity calls are given as the source filed them.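 Rule for the calls: active = mean IC50 below 10 µM; inactive = the rest.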
biological target: Apelin receptor (Homo sapiens) (UniProt P35414); test: APJ antagonists, beta-arrestin recruitment, SAR follow-up, cell-based, luminescence, set 2 (AID 488803); conditions: CHO-K1 APJ PathHunter beta-arrestin, antagonist
Sequence (P35414 whole entry, looked up): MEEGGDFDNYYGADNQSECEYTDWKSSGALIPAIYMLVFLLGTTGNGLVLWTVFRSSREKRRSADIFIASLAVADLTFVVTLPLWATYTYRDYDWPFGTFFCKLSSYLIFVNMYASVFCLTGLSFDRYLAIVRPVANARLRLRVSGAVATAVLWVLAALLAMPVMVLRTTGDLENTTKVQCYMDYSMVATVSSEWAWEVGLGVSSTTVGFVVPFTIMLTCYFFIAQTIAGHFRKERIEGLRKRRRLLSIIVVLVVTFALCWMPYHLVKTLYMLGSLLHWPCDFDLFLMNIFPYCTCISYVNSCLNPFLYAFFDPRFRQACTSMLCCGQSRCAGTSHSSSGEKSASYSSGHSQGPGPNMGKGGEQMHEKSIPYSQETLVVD

Row | SMILES | IC50
1 | COc1ccc(C(=O)Oc2coc(CSc3nccc(C)n3)cc2=O)cc1 | > 79 µM (inactive)
2 | O=C(Oc1coc(CSc2ncccn2)cc1=O)c1ccc(Cl)c([N+](=O)[O-])c1 | 6.2 µM
3 | Cc1c(O)ccc2c1OC1(CC2c2ccccc2Cl)CC(C)(C)NC(=S)N1 (stereo not given) | > 79 µM (inactive)
4 | C=CCSC1=NC2(CC(c3ccc(C)cc3)c3c(C)cc(OC(C)=O)cc3O2)CC(C)(C)N1 (stereo not given) | inactive
5 | CCOc1ccc(C(=O)Oc2coc(CSc3ncccn3)cc2=O)cc1 | > 79 µM (inactive)
6 | CCN(CC)S(=O)(=O)c1ccc(C(=O)Oc2coc(CSc3ncccn3)cc2=O)cc1 | > 79 µM (inactive)
7 | O=c1cc(CSc2ncccn2)occ1O | > 79 µM (inactive)
8 | O=C(Oc1coc(CSc2ncccn2)cc1=O)c1ccc(S(=O)(=O)N2CCCC2)cc1 | > 79 µM (inactive)
9 | O=C(Oc1coc(CSc2ncccn2)cc1=O)c1ccc(Br)cc1 | inactive
10 | CC1(C)CC2(CC(c3ccccc3Cl)c3ccc(O)cc3O2)NC(=S)N1 (stereo not given) | 6.88 µM
11 | O=C(Oc1coc(CSc2ncccn2)cc1=O)c1cc([N+](=O)[O-])ccc1Cl | inactive
12 | Cc1cc(C)nc(SCc2ccc(O)c(Cl)c2)n1 | > 79 µM (inactive)
13 | O=C(Oc1coc(CSc2ncccn2)cc1=O)c1cc(Cl)ccc1[N+](=O)[O-] | > 79 µM (inactive)
14 | CC1(C)CC2(CC(c3ccccc3Cl)c3cc(Cl)c(OC(=O)C4CC4)cc3O2)NC(=S)N1 (stereo not given) | inactive
15 | Cc1ccccc1C1CC2(CC(C)(C)NC(=S)N2)Oc2cc(O)c(Cl)cc21 (stereo not given) | inactive
16 | CN(C)S(=O)(=O)c1ccc(C(=O)Oc2coc(CSc3ncccn3)cc2=O)cc1 | > 79 µM (inactive)
17 | O=C(Oc1coc(CSc2ncccn2)cc1=O)c1ccc(Cl)cc1 | inactive
18 | Oc1cccc(CSc2ncccn2)c1 | > 79 µM (inactive)
19 | CC1(C)CC2(CC(c3ccc(F)cc3)c3ccc(O)cc3O2)NC(=S)N1 (stereo not given) | > 79 µM (inactive)
20 | COc1ccc(C2CC3(CC(C)(C)NC(=S)N3)Oc3cc(O)cc(C)c32)cc1 (stereo not given) | inactive

Row | SMILES | IC50
21 | O=C(Oc1coc(CSc2ncccn2)cc1=O)c1ccc(S(=O)(=O)N2CCCCC2)cc1 | > 79 µM (inactive)
22 | Cc1ccnc(SCc2cc(=O)c(OC(=O)c3ccc(Cl)cc3)co2)n1 | > 79 µM (inactive)
23 | CC(C)(C)c1ccc(C(=O)Oc2coc(CSc3ncccn3)cc2=O)cc1 | > 79 µM (inactive)
24 | Cc1cc(C)nc(SCc2cc(=O)c(OC(=O)c3cc(Cl)ccc3[N+](=O)[O-])co2)n1 | > 79 µM (inactive)
25 | C=CCOc1ccc(CSc2nc(C)cc(C)n2)cc1Cl | > 79 µM (inactive)
26 | O=c1cc(CCl)occ1O | > 79 µM (inactive)
27 | Cc1ccccc1NCC(O)c1ccc(Cl)cc1 (stereo not given) | > 79 µM (inactive)
28 | Cc1ccc(N=C2C(=O)Nc3ccccc32)cc1 | inactive
29 | COc1ccccc1NCC(O)c1ccc(Cl)cc1 (stereo not given) | > 79 µM (inactive)
30 | O=C(COC(=O)c1cccnc1)c1ccc(Cl)cc1 | > 79 µM (inactive)
31 | CC(C)OC(=O)CN1C(=O)C(=O)c2ccccc21 | > 79 µM (inactive)
32 | Cc1ccnc(SCc2cc(=O)c(OC(=O)c3ccc(C#N)cc3)co2)n1 | 8.51 µM
33 | Cc1c(O)ccc2c1OC1(CC2c2ccccc2Cl)CC(C)(C)NC(=O)N1 (stereo not given) | > 79 µM (inactive)
34 | Cc1ccc(C(=O)Oc2coc(CSc3nccc(C)n3)cc2=O)cc1 | > 79 µM (inactive)
35 | Cc1ccnc(SCc2cc(=O)c(OC(=O)c3ccc(C(F)(F)F)cc3)co2)n1 | inactive
36 | O=C(Oc1coc(CSc2ncccn2)cc1=O)c1ccc(S(=O)(=O)N2CCOCC2)cc1 | > 79 µM (inactive)
37 | O=C(Oc1coc(CSc2ncccn2)cc1=O)c1ccc(F)cc1 | > 79 µM (inactive)
38 | Cc1ccnc(SCc2cc(=O)c(OC(=O)c3ccc([N+](=O)[O-])cc3)co2)n1 | 4.32 µM
39 | Cc1cccc(C2CC3(CC(C)(C)NC(=O)N3)Oc3cc(O)c(Cl)cc32)c1 (stereo not given) | > 79 µM (inactive)
40 | Cc1ccnc(SCc2cc(=O)c(OC(=O)c3ccc(F)cc3)co2)n1 | > 79 µM (inactive)

Reference: PubChem BioAssay AID488803 (Sanford-Burnham Center for Chemical Genomics, 2010)
